For data set [1], the system named is natural antibody function. Description: Pig to cynomolgus kidney transplants. The format is in vivo. The conditions noted are these: 6 mg/kg/day, i.v. From the text: As is discussed herein, contacting the recipient's blood with galactosyl (α1, 3) galactose epitopes can be used to deplete the host of natural antibodies. Other methods for depleting or otherwise inactivating natural antibodies can be used with any of the methods described herein. For example, drugs which inactivate natural antibodies, e.g., deoxyspergualin (DSG) (Bristol), or anti-IgM antibodies, can be administered to the recipient of an allograft or a xenograft. One or more of, DSG (or similar drugs), anti-IgM antibodies, and hemoperfusion, can be used to inactivate recipient natural antibodies in methods of the invention.

Data set [2] deals with human natural antibodies (IgG, IgM) binding to porcine PBMC. The experiment in a line: Competitive binding assay, flow cytometry: human natural antibody binding to porcine PBMC. The conditions noted are these: human serum pre-incubated with competitor at 1 mg/ml. The method, then: FIG. 1 (Panels A, B, C, D) is a set of graphs which show α1,3Gal/BSA-inhibition of human natural antibody binding to pig cells. Human serum (20 μl) was preincubated with αGal/BSA (Panels A,C) or bovine thyroglobulin (Panels B,D) at concentrations of 1,000 μg/ml (b) or 0.1 μg/ml (c) prior to staining of porcine peripheral blood mononuclear cells (pPBMCs). The negative control (a) consisted of pPBMC plus an equivalent volume of galactosyl α(1, 3) galactose reactive natural antibody-depleted human serum (XNA^−) while the positive control was 20 μl human serum without competitor (d). Following incubation with the human serum, the cells were stained with either anti-human IgG (Panels A,B) or anti-human IgM (Panels C,D).
Human sera were obtained from healthy adult volunteers. Individual samples were isolated and stored at 4° C. for short periods or aliquoted and stored at −70° C. Porcine peripheral blood mononuclear cells (pPBMC) were isolated from heparinized whole blood obtained from an inbred miniature swine herd and resuspended in flow cytometric analysis staining buffer (Hank's Buffered Saline Solution (HBSS), 2.0% fetal calf serum, 0.04% sodium azide (Sigma Chemical Co., St. Louis, Mo.)) to a final concentration of 1×10^7 pPBMC/ml.
Human serum (15 μl) was pre-incubated with serially diluted αGal/BSA, bovine thyroglobulin (Sigma Chemical Co., St. Louis, Mo.) or BSA (Fisher Scientific, Pittsburgh, Pa.) at final concentrations of 1 mg/ml to 1 ng/ml for 90 minutes at 4° C. with gentle rocking. Fifty μl of pPBMC (5×10^5 cells) was incubated with 50 μl of human serum plus competitor for 90 minutes at 4° C. The positive control consisted of staining with human serum alone and the negative control was human serum depleted of natural antibodies (XNA^−). The cells were processed for all subsequent steps in the same way as for direct flow cytometric analysis (DerSimonian, H. M. et al. (1993) J. Exp. Med. 177:1623).

The test system of data set [3] is galactosyl α(1, 3) galactose-reactive natural antibodies in human serum. The experiment in a line: Competitive ELISA with αGal/BSA or bovine thyroglobulin coated plates. The format is binding. The procedure: In order to facilitate the detection of galactosyl α(1, 3) galactose-reactive antibodies in human serum samples, an ELISA system using αGal/BSA as the antigen was used. αGal/BSA (provided by BioTransplant, Inc.) was used to coat 96 well polystyrene plates (Costar) at a concentration of 10 μg/ml in PBS overnight at 4° C. Plates coated with BSA were included to control for background reactivity to BSA. Wells were blocked for 1-2 hours at room temperature with 1% BSA in TBS (100 mM Tris-HCl, pH 7.5, 0.9% NaCl). All plates were washed three times with 0.1% Tween-20 in TBS (TBS/Tween) using a Skatron plate washer (Skatron Instruments, Inc., Sterling, Va.). Serial dilutions of human serum from a single donor were used as the standard positive controls. XNA^− (see Example 3) was used as the negative control. Samples were aliquoted in triplicate and allowed to incubate at room temperature for 1 hour. After washing three times with TBS/Tween, the plates were incubated with alkaline phosphatase conjugated mouse monoclonal anti-human IgG or IgM antibody (Sigma Chemical Co., St. Louis, Mo.) for 1-2 hours at room temperature in the dark. The plates were washed and developed with Sigma 104 alkaline phosphatase substrate tablets in carbonate buffer (0.203 g MgCl2, 2.2 g Na2CO3, 2.43 g. NaHCO3 in 1 L. water). The amount of colored product was measured at 405 nm using the SLT Lab Instruments 340 ATC ELISA reader. For competitive ELISA, bovine thyroglobulin and αGal/BSA were serially diluted ten-fold in TBS to final concentrations of 1 mg/ml to 1 ng/ml. Equal volumes of human serum and competitor were combined and incubated for 1 hour at 4° C. The competition reactions were then aliquoted to antigen coated plates and incubated for 1 hour at room temperature. The plates were washed and incubated with alkaline phosphatase conjugated mouse monoclonal anti-human IgG or IgM antibody (Sigma Chemical Co., St. Louis, Mo.) for 1 hour at room temperature. The wells were washed and developed with Sigma 104 alkaline phosphatase substrate. All samples were analyzed in triplicate.
A general note: ELISA stands for enzyme-linked immunosorbent assay.

Data set [4] is described as follows: Stability of αGal/BSA in the ELISA system in the presence of human serum. The data set is classed as physicochemical. Conditions: 37° C. for up to 24 hours. The method, then: To ensure that the galactosyl α(1, 3) galactose epitope was stable under these conditions, experiments were performed to determine if there was any detectable hydrolysis of the galactosyl α(1, 3) galactose carbohydrate moiety in the presence of human serum.

In the case of `N=C(N)NCCCCCCC(=O)NC(O)C(=O)NCCCCNCCCN` (stereo not drawn) [DSG, deoxyspergualin], in data set [1], the “suppression of natural antibody function” value was “useful in suppressing natural antibody function”.
In the case of “Bovine thyroglobulin: galactosyl α(1, 3) galactose containing molecule, estimated eleven naturally occurring residues, 300 kD (Sigma)”, in data set [2], the “decrease in IgG binding to pig cells (median fluorescence intensity)” value turned out to be 79% and the “reduction of IgM binding to pig cells (median fluorescence intensity)” value is 66%. For the same molecule, in data set [3] (competitive ELISA, αGal/BSA as antigen), the “concentration necessary to block binding of αGal-reactive natural antibodies to αGal/BSA” value is 100-1,000 μg/ml. Moreover, in data set [3] (pre-incubation of serum with competitor), the “inhibition of binding of serum natural antibodies to αGal/BSA” value is “completely inhibited”.
Take “αGal/BSA: synthetic conjugate with fifteen to thirty-nine αGal moieties per BSA molecule, 70 kD”: in data set [2], the “decrease in IgG binding to pig cells (median fluorescence intensity)” value came to 84% and the “reduction of IgM binding to pig cells (median fluorescence intensity)” value was found to be 94%. Besides, the “concentration that completely inhibited binding of human IgG and IgM to bovine thyroglobulin” value in data set [3] (competitive ELISA, bovine thyroglobulin as antigen) is 1 µg/mL. In addition, the “stability (hydrolysis of the galactosyl α(1, 3) galactose moiety) in the ELISA system” value in data set [4] is “stable”.

These data come from US20020114787A1, “Tolerance to natural antibody antigens” (priority 1997, published 2002).
